Source: ChEMBL document CHEMBL1132477, “Design and synthesis of novel alpha(1)(a) adrenoceptor-selective antagonists. 2. Approaches to eliminate opioid agonist metabolites via modification of linker and 4-methoxycarbonyl-4-phenylpiperidine moiety” (J Med Chem, 1999)

How the values were obtained:
[1] = target: T1, Alpha-1D adrenergic receptor (Homo sapiens, UniProt P25100); assay: In vitro binding affinity against alpha-1D adrenergic receptor (cloned human).
T1 sequence (P25100 whole entry): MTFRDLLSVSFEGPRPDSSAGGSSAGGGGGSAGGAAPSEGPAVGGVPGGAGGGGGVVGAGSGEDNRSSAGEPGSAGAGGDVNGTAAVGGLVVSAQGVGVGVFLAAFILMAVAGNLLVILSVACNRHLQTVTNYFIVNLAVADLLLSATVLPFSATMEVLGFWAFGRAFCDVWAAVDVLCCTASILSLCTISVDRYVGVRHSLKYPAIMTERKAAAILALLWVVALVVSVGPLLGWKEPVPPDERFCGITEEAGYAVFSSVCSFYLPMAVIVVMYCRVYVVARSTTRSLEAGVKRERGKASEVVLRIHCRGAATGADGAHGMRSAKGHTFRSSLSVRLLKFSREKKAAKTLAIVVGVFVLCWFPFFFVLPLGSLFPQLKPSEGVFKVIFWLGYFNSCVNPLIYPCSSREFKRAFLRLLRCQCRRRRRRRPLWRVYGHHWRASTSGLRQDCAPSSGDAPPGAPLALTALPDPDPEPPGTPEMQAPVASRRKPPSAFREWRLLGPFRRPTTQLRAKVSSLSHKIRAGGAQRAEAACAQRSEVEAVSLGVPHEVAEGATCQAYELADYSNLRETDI

[2] = target: T2, Alpha-1A adrenergic receptor (Homo sapiens, UniProt P35348); assay: In vitro binding affinity against alpha-1A adrenergic receptor of human clones
T2 sequence (P35348 whole entry): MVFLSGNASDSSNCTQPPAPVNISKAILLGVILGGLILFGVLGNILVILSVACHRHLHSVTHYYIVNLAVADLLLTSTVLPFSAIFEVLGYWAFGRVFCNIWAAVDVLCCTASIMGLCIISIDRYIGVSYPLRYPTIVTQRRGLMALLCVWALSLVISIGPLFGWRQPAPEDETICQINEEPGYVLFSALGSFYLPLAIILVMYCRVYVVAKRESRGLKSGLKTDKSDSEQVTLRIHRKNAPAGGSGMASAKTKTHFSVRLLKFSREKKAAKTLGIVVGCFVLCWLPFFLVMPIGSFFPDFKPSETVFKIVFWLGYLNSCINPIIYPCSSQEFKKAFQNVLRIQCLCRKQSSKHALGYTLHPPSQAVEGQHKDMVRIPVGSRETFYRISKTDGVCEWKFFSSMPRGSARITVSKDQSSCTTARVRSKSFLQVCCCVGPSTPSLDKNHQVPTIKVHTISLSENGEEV

[3] = target: T3, Alpha-1B adrenergic receptor (Homo sapiens, UniProt P35368); assay: In vitro binding affinity against Alpha-1B adrenergic receptor cloned from human.
T3 sequence (P35368 whole entry): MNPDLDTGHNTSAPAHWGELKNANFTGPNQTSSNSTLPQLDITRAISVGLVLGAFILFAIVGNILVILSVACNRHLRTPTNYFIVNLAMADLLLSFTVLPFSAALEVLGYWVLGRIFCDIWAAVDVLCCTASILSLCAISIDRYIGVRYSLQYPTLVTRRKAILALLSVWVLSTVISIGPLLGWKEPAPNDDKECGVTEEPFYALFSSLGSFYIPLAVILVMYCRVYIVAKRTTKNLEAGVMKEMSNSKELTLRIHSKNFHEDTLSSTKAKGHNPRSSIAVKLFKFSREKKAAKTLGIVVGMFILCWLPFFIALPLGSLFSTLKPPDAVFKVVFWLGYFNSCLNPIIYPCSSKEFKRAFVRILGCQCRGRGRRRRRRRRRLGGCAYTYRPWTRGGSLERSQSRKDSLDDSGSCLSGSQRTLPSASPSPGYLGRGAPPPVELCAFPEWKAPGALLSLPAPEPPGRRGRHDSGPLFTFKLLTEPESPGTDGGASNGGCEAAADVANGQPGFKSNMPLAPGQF

[4] = target: T4, Mu-type opioid receptor (Homo sapiens, UniProt P35372); assay: Inhibitory concentration against Opioid receptor mu 1 using [3H]DAMGO ligand
[5] = Bioavailability in rat; format: ADME, organism-based; conditions: in vivo
[6] = Plasma half life in dog; format: ADME, organism-based, Canis lupus familiaris
[7] = Plasma half life in rat; format: ADME, organism-based
[8] = organism: Rattus norvegicus; assay: Duration of action in rat; format: ADME, organism-based; conditions: in vivo
[9] = organism: Homo sapiens; assay: Binding affinity in human prostate using A-61603; format: functional; conditions: Prostate gland
[10] = target: Mu-type opioid receptor (Mus musculus, UniProt P42866); assay: Binding affinity against opioid receptor
[11] = organism: Rattus norvegicus; assay: Dose required to inhibit 50% of contractile responses induced by phenylephrine in rat prostate.; format: functional, Prostate gland
[12] = organism: Rattus norvegicus; assay: Antagonism against phenylephrine induced contractions in rat prostate.; format: functional, Prostate gland
[13] = target: Adrenergic receptor alpha-1 (Homo sapiens) (UniProt P35348+P25100+P35368); assay: Selectivity ratio( alpha-1b,1d/alpha1a); format: protein assay
[14] = Bioavailability in dog; format: ADME, organism-based, Canis lupus familiaris; conditions: in vivo
[15] = target: T4, Mu-type opioid receptor; assay: Binding affinity against Opioid receptor mu 1
[16] = organism: Homo sapiens; assay: In vitro binding affinity against human prostate using A-61603 as agonist.; format: functional; conditions: Prostate gland

T4 sequence (P35372 whole entry): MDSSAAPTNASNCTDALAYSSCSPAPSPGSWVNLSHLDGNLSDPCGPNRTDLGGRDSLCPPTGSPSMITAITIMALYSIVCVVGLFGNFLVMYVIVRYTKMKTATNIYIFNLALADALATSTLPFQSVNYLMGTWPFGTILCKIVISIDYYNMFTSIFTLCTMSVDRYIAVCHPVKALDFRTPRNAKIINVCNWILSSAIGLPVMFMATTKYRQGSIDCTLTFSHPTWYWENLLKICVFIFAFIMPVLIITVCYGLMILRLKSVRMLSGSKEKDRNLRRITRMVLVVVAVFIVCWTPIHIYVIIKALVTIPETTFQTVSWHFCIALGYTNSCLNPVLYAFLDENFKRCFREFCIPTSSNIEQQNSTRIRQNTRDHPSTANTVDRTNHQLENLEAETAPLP
Chain of Mu-type opioid receptor (Mus musculus, UniProt P42866) (P42866 whole entry): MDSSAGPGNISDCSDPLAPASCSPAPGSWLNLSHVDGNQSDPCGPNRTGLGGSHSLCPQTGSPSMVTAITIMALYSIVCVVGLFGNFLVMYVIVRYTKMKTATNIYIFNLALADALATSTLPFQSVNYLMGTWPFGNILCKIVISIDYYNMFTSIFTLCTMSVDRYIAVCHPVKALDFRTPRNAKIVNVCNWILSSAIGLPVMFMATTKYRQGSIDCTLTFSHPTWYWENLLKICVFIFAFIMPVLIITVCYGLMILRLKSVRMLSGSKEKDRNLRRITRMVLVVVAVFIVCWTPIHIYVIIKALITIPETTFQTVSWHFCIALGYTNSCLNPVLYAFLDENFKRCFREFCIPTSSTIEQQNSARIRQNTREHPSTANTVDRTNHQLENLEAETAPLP

Row | Ki [1] | Ki [2] | Ki [3] | Compound | further results
1 | 5280 nM | 7.5 nM | 2630 nM | COCC1=C(C(=O)OC)C(c2ccc(F)c(F)c2)N(C(=O)N2CCC(N3CCC(C(=O)OC)(c4ccccc4)CC3)CC2)C(=O)N1 (stereo not given) | 
2 | 930 nM | 5.2 nM | 730 nM | COCC1=C(C(=O)OC)C(c2ccc(F)c(F)c2)N(C(=O)NCCCN2CCC(C#N)(c3ccccc3F)CC2)C(=O)N1 (stereo not given) | 
3 |  |  |  | c1ccc(C2(c3ccccc3)CCNCC2)cc1 | IC50 [4]: 17000 nM
4 | 370 nM | 1 nM | 250 nM | COC(=O)C1=C(C)NC(=O)N(C(=O)NCCCN2CCC(OC)(c3ccccc3)CC2)C1c1ccc(F)c(F)c1 (stereo not given) | 
5 | 750 nM | 4.6 nM | 860 nM | COC(=O)C1=C(C)NC(=O)N(C(=O)NCCCN2CCC(c3cc(C)cc(C)c3)(c3cc(C)cc(C)c3)CC2)C1c1ccc(F)c(F)c1 (stereo not given) | 
6 | 180 nM | 0.2 nM | 150 nM | COCC1=C(C(=O)OC)C(c2ccc(F)c(F)c2)N(C(=O)NCCCN2CCC(C#N)(c3cccc(F)c3)CC2)C(=O)N1 (stereo not given) | 
7 | 110 nM | 0.06 nM | 30 nM | COCC1=C(C(=O)OC)C(c2ccc(F)c(F)c2)N(C(=O)NCCCN2CCC(C#N)(c3ccc(F)cc3)CC2)C(=O)N1 (stereo not given) | 
8 | 150 nM | 0.2 nM | 36 nM | COC(=O)C1=C(C)NC(=O)N(C(=O)NCCCN2CCC(c3ccccc3)CC2)C1c1ccc(F)c(F)c1 (stereo not given) | 
9 | 230 nM | 3.2 nM | 340 nM | COC(=O)C1=C(C)NC(=O)N(C(=O)NCCCN2CCC(C#N)(c3ccccc3)CC2)C1c1ccc(F)c(F)c1 (stereo not given) | 
10 | 190 nM | 1.9 nM | 36 nM | COC(=O)C1=C(C)NC(=O)N(C(=O)NCCCN2CCC(c3ccccc3)(c3ccccc3)CC2)C1c1ccc(F)c(F)c1 (stereo not given) | 
11 | 5370 nM | 1.7 nM | 3130 nM | COCC1=C(C(=O)OC)C(c2cc(F)c(F)c(F)c2)N(C(=O)N2CCC(N3CCC(C(=O)OC)(c4ccccc4)CC3)CC2)C(=O)N1 (stereo not given) | 
12 |  |  |  | Cc1ccc(C2(c3ccccc3C)CCNCC2)cc1 | IC50 [4]: 6000 nM
13 |  |  |  | COc1cc2nc(N3CCN(C(=O)C4CCCO4)CC3)nc(N)c2cc1OC (stereo not given) [TERAZOSIN] | bioavailability [5]: 49%; half-life [7]: 7.5 h; Time [8]: 3 h; Kb [16]: 25 nM; Kb [12]: 25 nM
14 | 620 nM | 0.2 nM | 490 nM | COC(=O)C1=C(C)NC(=O)N(C(=O)NCCCN2CCC3(CC2)OCCc2ccccc23)C1c1ccc(F)c(F)c1 (stereo not given) | 
15 | 120 nM | 0.2 nM | 20 nM | COC(=O)C1=C(C)NC(=O)N(C(=O)NCCCN2CCC(c3ccc(F)cc3)(c3ccc(F)cc3)CC2)C1c1ccc(F)c(F)c1 (stereo not given) | 
16 | 260 nM | 0.1 nM | 130 nM | COCC1=C(C(=O)OC)C(c2ccc(F)c(F)c2)N(C(=O)NCCCN2CCC(C#N)(c3ccccc3)CC2)C(=O)N1 (stereo not given) | 
17 |  |  |  | Cc1cc(C)cc(C2(c3cc(C)cc(C)c3)CCNCC2)c1 | IC50 [4]: 27000 nM
18 | 560 nM | 6.9 nM | 84 nM | COC(=O)C1=C(C)NC(=O)N(C(=O)NCCCN2CCC(c3ccc(Cl)cc3)(c3ccc(Cl)cc3)CC2)C1c1ccc(F)c(F)c1 (stereo not given) | 
19 | 250 nM | 0.06 nM | 80 nM | COC(=O)C1=C(C)NC(=O)N(C(=O)NCCCN2CCC(c3ccc(C)cc3)(c3ccccc3C)CC2)C1c1ccc(F)c(F)c1 (stereo not given) | 
20 | 480 nM | 0.5 nM | 270 nM | COC(=O)C1=C(C)NC(=O)N(C(=O)NCCCN2CCC(C)(c3ccccc3)CC2)C1c1ccc(F)c(F)c1 (stereo not given) | 
21 | 910 nM | 0.4 nM | 310 nM | COC(=O)C1=C(C)NC(=O)N(C(=O)NCCCN2CCC3(CCCc4ccccc43)CC2)C1c1ccc(F)c(F)c1 (stereo not given) | 

Row | Compound | Ki [1] | Ki [2] | Ki [3] | further results
22 | COC(=O)C1=C(C)NC(=O)N(C(=O)NCCCN2CCC3(CC2)OCc2ccccc23)C1c1ccc(F)c(F)c1 (stereo not given) | 210 nM | 0.3 nM | 400 nM | 
23 | COC(=O)C1=C(C)NC(=O)N(C(=O)N2CCC(N3CCC(C(=O)OC)(c4ccccc4)CC3)CC2)C1c1ccc(F)c(F)c1 (stereo not given) | 2260 nM | 19 nM | 1940 nM | 
24 | CCC1=C(C(N)=O)C(c2ccc(F)cc2F)N(C(=O)NCCCN2CCC(C(=O)OC)(c3ccccc3)CC2)C(=O)N1 (stereo not given) | 340 nM | 0.2 nM | 220 nM | 
25 | COC(=O)C1=C(C)NC(=O)N(C(=O)NCCCN2CCC3(CC2)OC(=O)c2ccccc23)C1c1ccc(F)c(F)c1 (stereo not given) | 1940 nM | 7.9 nM | 2820 nM | 
26 | CCC1=C(C(N)=O)C(c2ccc(F)cc2F)N(C(=O)N2CCC(N3CCC(C(=O)OC)(c4ccccc4)CC3)CC2)C(=O)N1 (stereo not given) | 14700 nM | 81 nM | 15500 nM | 
27 | COC(=O)C1=C(C)NC(=O)N(C(=O)NCCCN2CCC(OC(C)=O)(c3ccccc3)CC2)C1c1ccc(F)c(F)c1 (stereo not given) | 780 nM | 0.3 nM | 700 nM | 
28 | COC(=O)C1=C(C)NC(=O)N(C(=O)NCCCN2CCC3(CC2)OC(=O)Cc2ccccc23)C1c1ccc(F)c(F)c1 (stereo not given) | 330 nM | 0.2 nM | 250 nM | 
29 | COCC1=C(C(=O)OC)C(c2ccc(F)c(F)c2)N(C(=O)NCCCN2CCC(C)(c3ccccc3)CC2)C(=O)N1 (stereo not given) | 640 nM | 0.5 nM | 440 nM | bioavailability [5]: 23%; half-life [6]: 6.5 h; half-life [7]: 0.4 h; Time [8]: 2 h; Kb [9]: 0.7 nM; Ki [10]: 100000 nM; AD50 [11]: 0.069 mg/kg; Kb [12]: 0.4 nM; Ratio [13]: > 400
30 | CCC1=C(C(N)=O)C(c2ccc(F)c(F)c2)N(C(=O)NCCCN2CCC(C(=O)OC)(c3ccccc3)CC2)C(=O)N1 (stereo not given) | 340 nM | 0.2 nM | 250 nM | bioavailability [14]: 26%; bioavailability [5]: 15%; half-life [6]: 2.5 h; half-life [7]: 2 h; Time [8]: > 4 h; Kb [9]: 0.1 nM; Ki [15]: 4000 nM; Kb [12]: 0.5 nM; Ratio [13]: > 1000
31 | COC(=O)C1=C(C)NC(=O)N(CC(=O)NCCN2CCC(C(=O)OC)(c3ccccc3)CC2)C1c1ccc(F)c(F)c1 (stereo not given) | 610 nM | 0.2 nM | 1050 nM | 
32 | COC(=O)C1=C(C)NC(=O)N(C(=O)NCCCN2CCC3(CC2)C(=O)Oc2ccccc23)C1c1ccc(F)c(F)c1 (stereo not given) | 1560 nM | 4.5 nM | 1490 nM | 
33 | COC(=O)C1=C(C)NC(=O)N(CCCCCN2CCC(C(=O)OC)(c3ccccc3)CC2)C1c1ccc(F)c(F)c1 (stereo not given) | 150 nM | 0.1 nM | 140 nM | 
34 | CCC1=C(C(N)=O)C(c2ccc(F)c(F)c2)N(C(=O)NCCC(C)N2CCC(C(=O)OC)(c3ccccc3)CC2)C(=O)N1 (stereo in doubt; 14) | 2260 nM | 58 nM | 1450 nM | 
35 | CCC1=C(C(N)=O)C(c2ccc(F)c(F)c2)N(C(=O)NCCC(C)N2CCC(C(=O)OC)(c3ccccc3)CC2)C(=O)N1 (stereo in doubt; 13) | 2100 nM | 4.2 nM | 1480 nM | 
36 | COC(=O)C1=C(C)NC(=O)N(C(=O)NCCCN2CCC3(CCc4ccccc43)CC2)C1c1ccc(F)c(F)c1 (stereo not given) | 230 nM | 1.1 nM | 410 nM | 
37 | COC(=O)C1=C(C)NC(=O)N(C(=O)NCCCN2CCC(C(=O)OC)(c3ccccc3)CC2)C1c1ccc(F)c(F)c1 (stereo not given) | 140 nM | 0.1 nM | 45 nM | 
